# Patent US8808702B2, “Sulfide, sulfoxide and sulfone chalcone analogues, derivatives thereof and therapeutic uses thereof” (Temple University-of the Commonwealth System of Higher …, priority 2006, dated 2014)
# Assays:
# [1] = test system: K562 (chronic myelogenous leukaemia); assay: Effect of compounds on tumor cell lines (assay of Latham et al.), K562; type: cell-based; details: Table 1; K562 cells, examined 96 hours after treatment, 1 μM to 100 μM in DMSO; read-out: K 562 potency (IC50)
# Experimental: (§1) The effect of the compounds of the invention on tumor cells was determined by the assay described by Latham et al., Oncogene 12:827-837 (1996). Tumor cells K562 (chronic myelogenous leukaemia) or DU145 (prostate cancer) were plated in 12-well dishes at a cell density of 2.5×10^4 cells well. The plated cells were treated 24 hours later with a compound of the invention dissolved in DMSO at multiple concentrations ranging from 1 μM to 100 μM. The plates were examined 96 hours later under an inverted microscope, Olympus CK-2 using an 10× objective, and compound activity was noted by physical observation. When necessary, the total number of viable cells was determined by trypsinizing the wells and counting the number of viable cells, as determined by trypan blue exclusion, using a hemacytometer.
# (§2) The representative compounds listed in Tables 1-5 are shown by way of illustration, and are not intended to limit the scope of the invention. The compounds are prepared and tested by methods based on those described above, except that the compound of Table 5 was dissolved in DMSO at multiple concentrations ranging from 0.1 μM to 100 μM
# DU145 (prostate cancer) = assay: Effect of compounds on tumor cell lines (assay of Latham et al.), DU145; type: cell-based; details: Table 1; DU145 cells, examined 96 hours after treatment, 1 μM to 100 μM in DMSO; read-out: DU 145 potency (IC50)
# Experimental: as §1, §2
SMILES,IC50 [1] [µM],IC50 (DU145 (prostate cancer)) [µM]
O=C(C(=Cc1ccc(Br)c(O)c1)Sc1ccc(Br)cc1)c1ccc(Br)cc1 [Example 32],1 to 10,1 to 10
O=C(C(=Cc1ccc(Br)c([N+](=O)[O-])c1)Sc1ccc(Br)cc1)c1ccc(Br)cc1 [Example 34],1 to 10,1 to 10
O=C(C(=Cc1ccc(Br)cc1)Sc1ccc(Br)cc1)c1ccc(Br)cc1 [Example 35],1 to 10,1 to 10
O=C(C(=Cc1ccc(Br)cc1)Sc1ccc(Br)cc1)c1ccc(Cl)cc1 [Example 36],1 to 10,1 to 10
O=C(C(=Cc1ccc(Cl)c([N+](=O)[O-])c1)Sc1ccc(Br)cc1)c1ccc(Br)cc1 [Example 37],1 to 10,1 to 10
O=C(C(=Cc1ccc(Cl)cc1)Sc1ccc(Br)cc1)c1ccc(Br)cc1 [Example 38],1 to 10,1 to 10
COc1cc(C=C(Sc2ccc(Br)cc2)C(=O)c2ccc(Br)cc2)ccc1F [Example 39],1 to 10,1 to 10
O=C(C(=Cc1ccc(F)cc1)Sc1ccc(Br)cc1)c1ccc(Br)cc1 [Example 40],1 to 10,10 to 25
COc1cc(C=C(Sc2ccc(Br)cc2)C(=O)c2ccc(Br)cc2)ccc1O [Example 41],1 to 10,1 to 10
O=C(C(=Cc1ccc(O)c([N+](=O)[O-])c1)Sc1ccc(Br)cc1)c1c(F)c(F)c(F)c(F)c1F [Example 42],1 to 10,1 to 10
O=C(C(=Cc1ccc(O)c([N+](=O)[O-])c1)Sc1ccc(Br)cc1)c1ccc(Br)cc1 [Example 43],1 to 10,1 to 10
CSc1ccc(C=C(Sc2ccc(Br)cc2)C(=O)c2ccc(Cl)cc2)cc1 [Example 46],1 to 10,1 to 10
COc1ccc(C=C(Sc2ccc(Br)cc2)C(=O)c2ccc(Br)cc2)cc1 [Example 47],1 to 10,25 to 50
COc1ccc(C=C(Sc2ccc(Br)cc2)C(=O)c2ccc(Cl)cc2)cc1 [Example 48],1 to 10,50 to 100
CN(C)c1ccc(C=C(Sc2ccc(Br)cc2)C(=O)c2ccc(Cl)cc2)cc1 [Example 49],> 100,> 100
O=C(C(=Cc1ccc(Oc2ccccc2)cc1)Sc1ccc(Br)cc1)c1ccc(Br)cc1 [Example 50],50 to 100,50 to 100

SMILES,IC50 [1] [µM],IC50 (DU145 (prostate cancer)) [µM]
O=C(C(=Cc1ccc(OC(F)(F)F)cc1)Sc1ccc(Br)cc1)c1ccc(Br)cc1 [Example 51],1 to 10,1 to 10
COc1ccc2[nH]cc(C=C(Sc3ccc(Br)cc3)C(=O)c3ccc(Br)cc3)c2c1 [Example 52],1 to 10,1 to 10
O=C(C(=Cc1ccc(Cl)cc1)Sc1ccc(Cl)cc1)c1ccc(Cl)cc1 [Example 53],1 to 10,1 to 10
COc1ccc(C(=O)C(=Cc2c(OC)cc(OC)cc2OC)Sc2ccc(F)cc2)cc1 [Example 54],50 to 100,50 to 100
O=C(C(=Cc1ccccc1OCc1ccccc1)Sc1ccc(F)cc1)c1ccc(Cl)cc1 [Example 55],1 to 10,1 to 10
COc1ccc(C(=O)C(=Cc2ccc(OC)c(O)c2)Sc2ccc(F)cc2)cc1 [Example 56],1 to 10,10 to 25
COc1ccc(C(=O)C(=Cc2ccc(Br)cc2)Sc2ccc(F)cc2)cc1 [Example 57],> 100,> 100
COc1ccc(C(=O)C(=Cc2ccc(Cl)cc2)Sc2ccc(F)cc2)cc1 [Example 58],> 100,> 100
COc1ccc(C=C(Sc2ccc(F)cc2)C(=O)c2ccc(OC)cc2)cc1 [Example 59],1 to 10,25 to 50
Cc1ccc(C=C(Sc2ccc(F)cc2)C(=O)c2ccc(Cl)cc2)s1 [Example 60],25 to 50,25 to 50
COc1ccc(SC(=Cc2ccc(Cl)cc2Cl)C(=O)c2ccc(Br)cc2)cc1 [Example 61],1 to 10,1 to 10
COc1ccc(SC(=Cc2ccccc2OCc2ccccc2)C(=O)c2ccc(Cl)cc2)cc1 [Example 62],1 to 10,1 to 10
COc1ccc(SC(=Cc2ccc(Br)cc2)C(=O)c2ccc(Br)cc2)cc1 [Example 63],1 to 10,25 to 50
COc1ccc(SC(=Cc2ccc(C)s2)C(=O)c2ccc(Cl)cc2)cc1 [Example 64],50 to 100,50 to 100
Cc1ccc(SC(=Cc2c(F)c(F)c(F)c(F)c2F)C(=O)c2ccc(Cl)cc2)cc1 [Example 65],25 to 50,25 to 50
